Measurements: PubChem BioAssay (NCI)
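Briefly, cells in 96-well plates were exposed to five compound concentrations for 48 h, and endpoints were estimated by linear interpolation. At the GI50, growth is halved. TGI: concentration producing complete growth inhibition.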

Columns and labels:
Test in all cases: inhibition of tumour cell growth, NCI panel, 48 h
[1] = tested on: PC-3 prostate
[2] = tested on: CCRF-CEM leukemia
[3] = tested on: RXF 393 renal
[4] = tested on: OVCAR-4 ovarian
[5] = tested on: SNB-19 CNS
[6] = tested on: HOP-62 NSCLC
[7] = tested on: OVCAR-3 ovarian
[8] = tested on: KM12 colon
[9] = tested on: HT29 colon
[10] = tested on: LOX IMVI melanoma
[11] = tested on: MOLT-4 leukemia
[12] = tested on: MCF7 breast
[13] = tested on: SK-MEL-5 melanoma
[14] = tested on: MALME-3M melanoma
[15] = tested on: TK-10 renal
[16] = tested on: UACC-62 melanoma
[17] = tested on: SF-295 CNS
[18] = tested on: SN12C renal
[19] = tested on: A498 renal
[20] = tested on: RPMI-8226 leukemia
[21] = tested on: MDA-MB-468 breast
[22] = tested on: MDA-MB-231 breast
[23] = tested on: SF-539 CNS
[24] = tested on: NCI-H522 lung
[25] = tested on: M14 melanoma
[26] = tested on: SW-620 colon
[27] = tested on: SR leukemia
[28] = tested on: T-47D breast
[29] = tested on: NCI-H226 lung
[30] = tested on: NCI-H460 lung
[31] = tested on: NCI/ADR-RES ovarian
[32] = tested on: HL-60(TB) leukemia
[33] = tested on: EKVX NSCLC
[34] = tested on: SK-OV-3 ovarian
[35] = tested on: SK-MEL-2 melanoma
[36] = tested on: CAKI-1 renal
[37] = tested on: COLO 205 colon
[38] = tested on: SK-MEL-28 melanoma
[39] = tested on: UACC-257 melanoma
[40] = tested on: NCI-H23 lung
[41] = tested on: SF-268 CNS
[42] = tested on: OVCAR-8 ovarian
[43] = tested on: UO-31 renal
[44] = tested on: 786-0 renal
[45] = tested on: MDA-MB-435
[46] = tested on: HCT-116 colon
[47] = tested on: IGROV1 ovarian
[48] = tested on: BT-549 breast
[49] = tested on: OVCAR-5 ovarian
[50] = tested on: HCC-2998 colon
[51] = tested on: HS 578T breast
[52] = tested on: U251 CNS
[53] = tested on: DU-145 prostate
[54] = tested on: K-562 leukemia
[55] = tested on: ACHN renal
[56] = tested on: HCT-15 colon
[57] = tested on: A549 NSCLC
[58] = tested on: HOP-92 NSCLC
[59] = tested on: SNB-75 CNS

CN1CCN(c2ccc(C(=O)/C=C/c3cc(C(F)(F)F)cc(C(F)(F)F)c3)cc2)CC1
GI50 [1]: 1.64 µM | TGI [1]: 3.32 µM | GI50 [2]: 2.38 µM | TGI [2]: 5.87 µM | GI50 [3]: 1.19 µM | TGI [3]: 2.57 µM | GI50 [4]: 1.52 µM | TGI [4]: 3.49 µM | GI50 [5]: 1.73 µM | TGI [5]: 3.1 µM | GI50 [6]: 1.86 µM | TGI [6]: 3.75 µM | GI50 [7]: 1.45 µM | TGI [7]: 2.94 µM | GI50 [8]: 1.76 µM | TGI [8]: 3.82 µM | GI50 [9]: 1.62 µM | TGI [9]: 3.41 µM | GI50 [10]: 1.35 µM | TGI [10]: 2.63 µM | GI50 [11]: 1.42 µM | TGI [11]: 5.01 µM | GI50 [12]: 1.2 µM | TGI [12]: 2.56 µM | GI50 [13]: 1.55 µM | TGI [13]: 2.9 µM | GI50 [14]: 1.66 µM | TGI [14]: 3.07 µM | GI50 [15]: 2 µM | TGI [15]: 3.45 µM | GI50 [16]: 1.5 µM | TGI [16]: 2.86 µM | GI50 [17]: 1.47 µM | TGI [17]: 2.82 µM | GI50 [18]: 1.3 µM | TGI [18]: 2.59 µM | GI50 [19]: 17.9 µM | TGI [19]: 35.6 µM | GI50 [20]: 1.44 µM | TGI [20]: 3.8 µM | GI50 [21]: 1.24 µM | TGI [21]: 2.56 µM | GI50 [22]: 1.75 µM | TGI [22]: 3.35 µM | GI50 [23]: 1.64 µM | TGI [23]: 3 µM | GI50 [24]: 1.4 µM | TGI [24]: 2.97 µM | GI50 [25]: 1.52 µM | TGI [25]: 2.97 µM | GI50 [26]: 1.81 µM | TGI [26]: 4.51 µM | GI50 [27]: 1.17 µM | TGI [27]: 3.93 µM | GI50 [28]: 1.27 µM | TGI [28]: 3.1 µM | GI50 [29]: 1.49 µM | TGI [29]: 3.2 µM | GI50 [30]: 2.89 µM | TGI [30]: > 100 µM | GI50 [31]: 1.64 µM | TGI [31]: 3.64 µM | GI50 [32]: 1.04 µM | TGI [32]: 2.79 µM | GI50 [33]: 1.87 µM | TGI [33]: 3.41 µM | GI50 [34]: 2.6 µM | TGI [34]: 6.12 µM | GI50 [35]: 1.73 µM | TGI [35]: 3.23 µM | GI50 [36]: 1.66 µM | TGI [36]: 3.26 µM | GI50 [37]: 2.03 µM | TGI [37]: 3.87 µM | GI50 [38]: 1.68 µM | TGI [38]: 3.05 µM | GI50 [39]: 1.73 µM | TGI [39]: 3.58 µM | GI50 [40]: 1.51 µM | TGI [40]: 2.97 µM | GI50 [41]: 1.82 µM | TGI [41]: 3.71 µM | GI50 [42]: 1.73 µM | TGI [42]: 4.36 µM | GI50 [43]: 1.46 µM | TGI [43]: 2.78 µM | GI50 [44]: 1.68 µM | TGI [44]: 3.11 µM | GI50 [45]: 1.6 µM | TGI [45]: 3.07 µM | GI50 [46]: 1.15 µM | TGI [46]: 2.45 µM | GI50 [47]: 1.65 µM | TGI [47]: 3.15 µM | GI50 [48]: 1.33 µM | TGI [48]: 2.66 µM | GI50 [49]: 1.68 µM | TGI [49]: 3.2 µM | GI50 [50]: 1.39 µM | TGI [50]: 2.68 µM | GI50 [51]: 4.88 µM | TGI [51]: 34.7 µM | GI50 [52]: 1.66 µM | TGI [52]: 3.18 µM | GI50 [53]: 1.63 µM | TGI [53]: 3.04 µM | GI50 [54]: 1.07 µM | TGI [54]: 6.37 µM | GI50 [55]: 1.49 µM | TGI [55]: 2.82 µM | GI50 [56]: 1.12 µM | TGI [56]: 2.39 µM

CCCn1c(=O)c2[nH]c(-c3ccc(OCc4nc5ccc(C)cc5[nH]4)cc3)nc2n(CCC)c1=O
GI50 [1]: 9.66 µM | TGI [1]: > 100 µM | GI50 [2]: 32.8 µM | TGI [2]: > 100 µM | GI50 [3]: 1.62 µM | TGI [3]: 5.12 µM | GI50 [4]: 2.73 µM | TGI [4]: > 100 µM | GI50 [5]: 6 µM | TGI [5]: 28.6 µM | GI50 [6]: 4.12 µM | TGI [6]: 16.9 µM | GI50 [7]: 8.62 µM | TGI [7]: 85.9 µM | GI50 [8]: > 100 µM | TGI [8]: > 100 µM | GI50 [9]: 29.6 µM | TGI [9]: > 100 µM | GI50 [10]: 4.72 µM | TGI [10]: 17.3 µM | GI50 [11]: 12.2 µM | TGI [11]: > 100 µM | GI50 [12]: 7.35 µM | TGI [12]: 36.6 µM | GI50 [13]: 13.7 µM | TGI [13]: 31.5 µM | GI50 [14]: 7.28 µM | TGI [14]: 20.5 µM | GI50 [15]: 10.7 µM | TGI [15]: 23.1 µM | GI50 [16]: 10 µM | TGI [16]: 25.6 µM | GI50 [17]: 2.65 µM | TGI [17]: 13.1 µM | GI50 [18]: 3.78 µM | TGI [18]: 18.1 µM | GI50 [19]: 2.43 µM | TGI [19]: 10.6 µM | GI50 [20]: 9.71 µM | TGI [20]: > 100 µM | GI50 [21]: 8.62 µM | TGI [21]: 27.6 µM | GI50 [22]: 3.48 µM | TGI [22]: 14.5 µM | GI50 [23]: 2.61 µM | TGI [23]: 7.98 µM | GI50 [57]: 13.5 µM | TGI [57]: > 100 µM | GI50 [24]: 17.2 µM | TGI [24]: 42.3 µM | GI50 [25]: 21.3 µM | TGI [25]: > 100 µM | GI50 [26]: 32.5 µM | TGI [26]: > 100 µM | GI50 [27]: > 100 µM | TGI [27]: > 100 µM | GI50 [28]: 16.9 µM | TGI [28]: 47.2 µM | GI50 [29]: 2.91 µM | TGI [29]: 13.2 µM | GI50 [30]: 6.04 µM | TGI [30]: 23.1 µM | GI50 [31]: 11 µM | TGI [31]: 64.5 µM | GI50 [32]: 46.2 µM | TGI [32]: > 100 µM | GI50 [33]: 20.7 µM | TGI [33]: > 100 µM | GI50 [34]: 12.1 µM | TGI [34]: 27 µM | GI50 [35]: 16.8 µM | TGI [35]: 33.2 µM | GI50 [36]: 4.55 µM | TGI [36]: 25.1 µM | GI50 [37]: 84.7 µM | TGI [37]: > 100 µM | GI50 [38]: 15.9 µM | TGI [38]: > 100 µM | GI50 [39]: 40.9 µM | TGI [39]: > 100 µM | GI50 [40]: 12 µM | TGI [40]: 24.4 µM | GI50 [41]: 12.6 µM | TGI [41]: > 100 µM | GI50 [42]: 5.3 µM | TGI [42]: 24.8 µM | GI50 [43]: 1.98 µM | TGI [43]: 7.27 µM | GI50 [44]: 3.06 µM | TGI [44]: 12.1 µM | GI50 [45]: 31 µM | TGI [45]: > 100 µM | GI50 [46]: 11.3 µM | TGI [46]: 27.8 µM | GI50 [58]: 2.29 µM | TGI [58]: 9.1 µM | GI50 [47]: 10.1 µM | TGI [47]: 38.7 µM | GI50 [48]: 14 µM | TGI [48]: 46.7 µM | GI50 [49]: 18.5 µM | TGI [49]: 76.8 µM | GI50 [50]: 29 µM | TGI [50]: > 100 µM | GI50 [51]: 2.36 µM | TGI [51]: 11.1 µM | GI50 [52]: 4.06 µM | TGI [52]: 17 µM | GI50 [53]: 66.4 µM | TGI [53]: > 100 µM | GI50 [54]: 22.3 µM | TGI [54]: > 100 µM | GI50 [55]: 3.29 µM | TGI [55]: 13.4 µM | GI50 [56]: 14.7 µM | TGI [56]: > 100 µM | GI50 [59]: 1.54 µM | TGI [59]: 4.62 µM
